# Data taken from patent US20200405697A1, “Antitumor Agent” (Taiho Pharmaceutical Co., Ltd, priority 2017, published 2020).
# Molecular target: T1, human RNR (histidine tagged human M1 and human M2 proteins) (Homo sapiens, UniProt P23921)
# T1 construct: made in house; host or cells: Escherichia coli
# T1 sequence (P23921 1-792): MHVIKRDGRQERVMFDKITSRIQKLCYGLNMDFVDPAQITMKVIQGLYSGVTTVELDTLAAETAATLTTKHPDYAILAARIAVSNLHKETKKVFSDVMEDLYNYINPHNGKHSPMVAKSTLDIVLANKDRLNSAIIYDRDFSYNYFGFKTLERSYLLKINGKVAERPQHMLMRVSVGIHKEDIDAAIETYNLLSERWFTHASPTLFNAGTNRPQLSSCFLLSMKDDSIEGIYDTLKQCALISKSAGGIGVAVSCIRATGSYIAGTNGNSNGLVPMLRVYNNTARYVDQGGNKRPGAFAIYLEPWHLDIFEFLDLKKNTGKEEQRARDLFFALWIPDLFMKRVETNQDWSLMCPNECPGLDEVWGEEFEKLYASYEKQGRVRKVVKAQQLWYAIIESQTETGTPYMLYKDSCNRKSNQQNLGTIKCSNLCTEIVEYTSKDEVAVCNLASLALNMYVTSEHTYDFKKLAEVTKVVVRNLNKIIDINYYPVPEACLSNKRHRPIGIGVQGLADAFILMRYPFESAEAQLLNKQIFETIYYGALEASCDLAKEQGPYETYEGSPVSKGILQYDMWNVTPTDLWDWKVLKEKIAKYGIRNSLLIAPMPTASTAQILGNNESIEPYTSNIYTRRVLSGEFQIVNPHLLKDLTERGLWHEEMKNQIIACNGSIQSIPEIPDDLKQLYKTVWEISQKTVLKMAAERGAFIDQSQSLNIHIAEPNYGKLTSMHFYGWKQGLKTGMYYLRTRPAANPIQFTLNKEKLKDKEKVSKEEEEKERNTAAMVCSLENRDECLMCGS
# Assay: Human RNR inhibition effect (dCDP formation from CDP)
# Assay type: biochemical
# Details: 10 μM CDP, 37° C. for 30 minutes, read-out: RNR inhibitory activity IC50
# Protocol: The inhibitory activity against the ribonucleotide reduction reaction (RNR inhibitory activity) of the Example compound was determined by measuring the formation of deoxycytidine diphosphate (hereinafter referred to as dCDP) from cytidine diphosphate (hereinafter referred to as CDP) by the following method.
# Human M1 subunit (isoform 1, GenBank accession No: NM_001033), to which a histidine tag is fused at the amino terminus, and human M2 subunit (mutant lacking amino terminal 59 amino acids of isoform 2, GenBank accession No: NM_001034), to which a histidine tag is fused, were overexpressed in Escherichia coli and were solubilized after collection, and histidine tagged human M1 and histidine tagged human M2 proteins were purified on a nickel chelate column. A mixture of the histidine tagged human M1 and histidine tagged human M2 proteins was used as RNR in the ribonucleotide reduction reaction. [to]
# First, Example compounds were serially diluted with DMSO. Next, human M1 protein and human M2 protein were added to a 0.02% aqueous albumin solution derived from fetal bovine serum, a DMSO solution of the Example compound or the control DMSO solution (final concentration of DMSO was 1%) was added, and the mixture was allowed to stand for 20 minutes. Thereafter, the reaction buffer [50 mM HEPES buffer (pH 7.2) at the final concentration, 4 mM magnesium acetate at the final concentration, 100 mM potassium chloride at the final concentration, 6 mM dithiothreitol at the final concentration, 2 mM adenosine triphosphate at the final concentration, 0.24 mM nicotinamide adenine dinucleotide phosphate at final concentration] and 10 μM CDP at the final concentration were added and incubated at 37° C. for 30 minutes to perform ribonucleotide reduction reaction. Immediately after the reaction, the reaction was stopped by heating at 100° C. for 15 minutes, followed by centrifugation at 10,000 rpm for 10 minutes. After the centrifugation, a portion (5 μL) of the resulting supernatant was analyzed with a high performance liquid chromatography (Shimadzu Corporation, Prominence) using Shim-pack XR-ODS (manufactured by Shimadzu GLC Co., 3.0×100 mm).
smiles,measurement,value
"COc1cc(Cl)ccc1S(=O)(=O)N[C@H](c1noc(=O)[nH]1)[C@H](C)c1c(F)ccc(C)c1C [Example 349, 4-chloro-N-((1S,2R)-2-(6-fluoro-2,3-dimethylphenyl)-1-(5-oxo-4,5-dihydro-1,2,4-oxadiazol-3-yl)propyl)-2-methoxybenzenesulfonamide]",IC50,250 nM
"Cc1ccc(F)c([C@@H](C)[C@H](NS(=O)(=O)c2cc(-c3nnco3)ccc2C(N)=O)c2n[nH]c(=O)o2)c1C [Example 331, 2-(N-((1S,2R)-2-(6-fluoro-2,3-dimethylphenyl)-1-(5-oxo-4,5-dihydro-1,3,4-oxadiazol-2-yl)propyl)sulfamoyl)-4-(1,3,4-oxadiazol-2-yl)benzamide]",IC50,90 nM
"Cc1ccc(F)c([C@@H](C)[C@H](NS(=O)(=O)c2ccc(Cl)c3c2OCC(=O)N3CCO)c2n[nH]c(=O)o2)c1C [Example 273, 5-chloro-N-((1S,2R)-2-(6-fluoro-2,3-dimethylphenyl)-1-(5-oxo-4,5-dihydro-1,3,4-oxadiazol-2-yl)propyl)-4-(2-hydroxyethyl)-3-oxo-3,4-dihydro-2H-benzo[b][1,4]oxazine-8-sulfonamide]",IC50,130 nM
"Cc1ccc(F)c([C@@H](C)[C@H](NS(=O)(=O)c2ccc(Cl)c(C(=O)O)n2)c2n[nH]c(=O)o2)c1C [Example 215, 3-chloro-6-(N-((1S,2R)-2-(6-fluoro-2,3-dimethylphenyl)-1-(5-oxo-4,5-dihydro-1,3,4-oxadiazol-2-yl)propyl)sulfamoyl)picolinic acid]",IC50,190 nM
"Cc1c(Br)ccc(F)c1[C@@H](C)[C@H](NS(=O)(=O)c1ccc(Br)cc1C(N)=O)c1n[nH]c(=O)o1 [Example 35, 5-bromo-2-(N-((1S,2R)-2-(3-bromo-6-fluoro-2-methylphenyl)-1-(5-oxo-4,5-dihydro-1,3,4-oxadiazol-2-yl)propyl)sulfamoyl)benzamide]",IC50,130 nM
"Cc1ccc(F)c([C@@H](C)[C@H](NS(=O)(=O)c2cc(OCC(F)F)ccc2C(N)=O)c2n[nH]c(=O)o2)c1C [Example 263, 4-(2,2-difluoroethoxy)-2-(N-((1S,2R)-2-(6-fluoro-2,3-dimethylphenyl)-1-(5-oxo-4,5-dihydro-1,3,4-oxadiazol-2-yl)propyl)sulfamoyl)benzamide]",IC50,70 nM
"Cc1c(Cl)ccc(F)c1[C@@H](C)[C@H](NS(=O)(=O)c1ccc(Cl)c2c1OCCC2(C)O)c1n[nH]c(=O)o1 (single isomer, unassigned) [Example 209B]",IC50,180 nM
"CC(=O)Nc1cc(Cl)ccc1S(=O)(=O)N[C@H](c1n[nH]c(=O)o1)[C@H](C)c1c(F)ccc(C)c1C [Example 274, N-(5-chloro-2-(N-((1S,2R)-2-(6-fluoro-2,3-dimethylphenyl)-1-(5-oxo-4,5-dihydro-1,3,4-oxadiazol-2-yl)propyl)sulfamoyl)phenyl)acetamide]",IC50,440 nM
"Cc1ccc(F)c([C@@H](C)[C@H](NS(=O)(=O)c2ccc(C#N)cc2)c2n[nH]c(=O)o2)c1C [Example 341, 4-cyano-N-((1S,2R)-(6-fluoro-2,3-dimethylphenyl)-1-(5-oxo-4,5-dihydro-1,3,4-oxadiazol-2-yl)propyl)benzenesulfonamide]",IC50,410 nM
"COc1cc(C(N)=O)c(S(=O)(=O)N[C@H](c2n[nH]c(=O)o2)[C@H](C)c2c(F)ccc(C)c2C)cc1OC [Example 260, 2-(N-((1S,2R)-2-(6-fluoro-2,3-dimethylphenyl)-1-(5-oxo-4,5-dihydro-1,3,4-oxadiazol-2-yl)propyl)sulfamoyl)-4,5-dimethoxybenzamide]",IC50,360 nM
"COc1cc(Br)ccc1S(=O)(=O)N[C@H](c1n[nH]c(=O)o1)[C@H](C)c1cccc2c1CCC2 [Example 137, 4-bromo-N-((1S,2R)-2-(2,3-dihydro-1H-inden-4-yl)-1-(5-oxo-4,5-dihydro-1,3,4-oxadiazol-2-yl)propyl)-2-methoxybenzenesulfonamide]",IC50,590 nM
"Cc1ccc(F)c([C@@H](C)[C@H](NS(=O)(=O)c2cccc3c2OCCC3(O)C(F)(F)F)c2n[nH]c(=O)o2)c1C (stereo partly drawn) [Example 211A, N-((1S,2R)-2-(6-fluoro-2,3-dimethylphenyl)-1-(5-oxo-4,5-dihydro-1,3,4-oxadiazol-2-yl)propyl)-4-hydroxy-4-(trifluoromethyl)chroman-8-sulfonamide]",IC50,120 nM
"COc1cc(S(=O)(=O)N[C@H](c2n[nH]c(=O)o2)[C@H](C)c2c(F)ccc(C)c2C)c(C(N)=O)cc1Cl [Example 259, 5-chloro-2-(N-((1S,2R)-2-(6-fluoro-2,3-dimethylphenyl)-1-(5-oxo-4,5-dihydro-1,3,4-oxadiazol-2-yl)propyl)sulfamoyl)-4-methoxybenzamide]",IC50,100 nM
"Cc1ccc(F)c([C@@H](C)[C@H](NS(=O)(=O)c2ccc(Cl)c(C#N)n2)c2n[nH]c(=O)o2)c1C [Example 105, 5-chloro-6-cyano-N-((1S,2R)-2-(6-fluoro-2,3-dimethylphenyl)-1-(5-oxo-4,5-dihydro-1,3,4-oxadiazol-2-yl)propyl)pyridine-2-sulfonamide]",IC50,160 nM
"Cc1ccc(F)c([C@@H](C)[C@H](NS(=O)(=O)c2ccc3c(c2)CCCO3)c2n[nH]c(=O)o2)c1C [Example 183, N-((1S,2R)-2-(6-fluoro-2,3-dimethylphenyl)-1-(5-oxo-4,5-dihydro-1,3,4-oxadiazol-2-yl)propyl)chroman-6-sulfonamide]",IC50,320 nM
"[2H]C([2H])([2H])C1(O)CCOc2c(S(=O)(=O)N[C@H](c3n[nH]c(=O)o3)[C@H](C)c3c(F)ccc(Br)c3C)ccc(Cl)c21 (single isomer, unassigned) [Example 226A]",IC50,50 nM
"C[C@H](c1c(F)ccc2ccccc12)[C@H](NS(=O)(=O)c1ccc(Br)cc1C(N)=O)c1n[nH]c(=O)o1 [Example 15, 5-bromo-2-(N-((1S,2R)-2-(2-fluoronaphthalen-1-yl)-1-(5-oxo-4,5-dihydro-1,3,4-oxadiazol-2-yl)propyl)sulfamoyl)benzamide]",IC50,100 nM
"COc1ccc(-c2ccc(F)c([C@@H](C)[C@H](NS(=O)(=O)c3ccc(Cl)cc3OC)c3n[nH]c(=O)o3)c2C)cn1 [Example 314, 4-chloro-N-((1S,2R)-2-(6-fluoro-3-(6-methoxypyridin-3-yl)-2-methylphenyl)-1-(5-oxo-4,5-dihydro-1,3,4-oxadiazol-2-yl)propyl)-2-methoxybenzenesulfonamide]",IC50,260 nM
"Cc1c(Cl)ccc(F)c1[C@@H](C)[C@H](NS(=O)(=O)c1ccc(Cl)c2c1OCCC2(C)N)c1n[nH]c(=O)o1 (single isomer, unassigned) [Example 330B]",IC50,460 nM
"COc1c(S(=O)(=O)N[C@H](c2n[nH]c(=O)o2)[C@H](C)c2c(F)ccc3ccccc23)ccc(Cl)c1C(C)O (stereo partly drawn) [Example 205, 4-chloro-N-((1S,2R)-2-(2-fluoronaphthalene-1-yl)-1-(5-oxo-4,5-dihydro-1,3,4-oxadiazol-2-yl)propyl)-3-(1-hydroxyethyl)-2-methoxybenzenesulfonamide]",IC50,80 nM
"Cc1ccc(F)c([C@@H](C)[C@H](NS(=O)(=O)c2ccc(F)c3c2OCCC3(C)O)c2n[nH]c(=O)o2)c1C (single isomer, unassigned) [Example 224A]",IC50,90 nM
"CC(=O)OC(C)c1nc(S(=O)(=O)N[C@H](c2n[nH]c(=O)o2)[C@H](C)c2cccc3c2CCC3)ccc1Cl (stereo partly drawn) [Example 142, 1-(3-chloro-6-(N-((1S,2R)-2-(2,3-dihydro-1H-inden-4-yl)-1-(5-oxo-4,5-dihydro-1,3,4-oxadiazol-2-yl)propyl)sulfamoyl)pyridin-2-yl)ethylacetate]",IC50,210 nM
